# Test results published in US8753841B2, “Enzyme that catalyzes a peptide-forming reaction from a carboxy component and an amine component, microbe producing the same, and a method of producing a dipeptide using the enzyme or microbe” (Ajinomoto Co., Inc., priority 2002, dated 2014).
# Marks after values point to notes of the source that are not given here. Non-standard residues stand in square brackets, D forms with d. No end group written: not given here. *: point of attachment. Boc = CC(C)(C)OC(=O)*; OtBu = CC(C)(C)O*; tBu = CC(C)(C)*
# What was measured:
# Type in all cases: biochemical
# [1] = tested on: enzyme derived from Sphingobacterium sp. strain FERM BP-8124; test: Substrate specificity of enzyme derived from Sphingobacterium sp.; set-up: key to Produced peptide (mM): +: those peptides for which production was confirmed but which were unable to be quantified due to the absence of a standard; a trace amount; details: carboxy component 100 mM, amine component 150 mM, 0.33 units enzyme, pH 9.0, 25° C., 1.5 hours
# [2] = tested on: peptide-forming enzyme from Empedobacter brevis strain FERM BP-8113; test: Substrate specificity of enzyme (peptide production from carboxy and amine components); set-up: key to Formed peptide (mM): +: those peptides for which production was confirmed but which were unable to be quantified due to the absence of a standard; a trace amount; details: pH 9.0, 25° C.; for Formed peptide / Formed peptide (mM): L-amino acid methyl ester hydrochloride 100 mM, 3 hours; for Formed peptide: L-amino acid 150 mM; for Formed peptide (mM): 150 mM L-glutamine; for L-Ala-L-Gln formed: carboxy component 100 mM, 200 mM L-glutamine, 2 hours
# Excerpt: Ester specificity was examined in the case of using L-amino acid ester for the carboxy component. […] HCl represents hydrochloride in Table 4.
# Peptide production was examined in the case of using L-alanine methyl ester for the carboxy component and using various L-amino acids for the amine component.
# Peptide production was examined in the case of using various types of L-amino acid methyl esters for the carboxy component and using L-glutamine for the amine component. […] Furthermore, Tween-80 was added to the reaction system to a final concentration of 0.1% in the case of using L-Trp-OMe and L-Tyr-OMe.
# [3] = tested on: peptide-forming enzyme from Empedobacter brevis strain FERM BP-8113; test: as above; set-up: key to Formed peptide (mM): +: those peptides for which production was confirmed but which were unable to be quantified due to the absence of a standard; a trace amount
# [4] = amino acid methyl ester hydrochloride 100 mM, methylamine 150 mM, pH 9.0, 25° C., 3 hours
# [5] = β-amino acid ester or β-amino acid, carboxy component 100 mM, amine component 150 mM, pH 9.0, 25° C., 3 hours
# [6] = L or D amino acid methyl ester hydrochloride 100 mM, L or D amino acid 150 mM, pH 9.0, 25° C., 3 hours
# [7] = carboxy component 100 mM, peptide amine component 150 mM, pH 9.0, 25° C., 3 hours
# [8] = carboxy component 40 mM, amine component 40 mM, 0.1 unit enzyme, 25° C., reaction time 3 hr
# [9] = oligopeptide production, amount of enzyme 1.0 unit, pH 9.0, 25° C., 3 hours
# [10] = carboxy component 100 mM, amine component 150 mM, 0.1 unit enzyme, 25° C., reaction time 3 hr
# [11] = carboxy component 100 mM, amine component 150 mM, 0.1 unit enzyme, 25° C., reaction time 2 hr
# [12] = L-alanine methyl ester hydrochloride 100 mM, L-amino acid amide hydrochloride 150 mM, pH 9.0, 25° C., 3 hours
compound,measurement,setting,value
L-Ala-L-Lys,Produced peptide,[1]; Table 15-1,71.2 mM
L-Leu-L-Met,Formed peptide,[2],12.2 mM
CNC(=O)[C@@H](N)[C@@H](C)O [L-Thr-methylamine],Produced peptide,[1]; Table 15-4,0.3 mM
same,Formed peptide,[3]; [4],0.2 mM
L-Asn-L-Glu,Formed peptide,[2],10.2 mM
Thr-β-Phe,Formed peptide,[3]; [5],1.4 mM
L-Ala-D-Ser,Produced peptide,[1]; Table 15-1,3.3 mM
same,Formed peptide,[3]; [6],5.4 mM
L-CySH-L-Gln,Formed peptide (mM),[2],+
Gly-L-Ala-L-Tyr,Produced peptide,[1]; oligopeptide production,0.6 mM
same,Produced peptide,[3]; [7],1.7 mM
H-p-NO2-Phe-H-Gln-OH,Produced peptide,[3]; [8],1.1 mM
D-Ser-D-Ser,Formed peptide,[3]; [6],2.5 mM
L-Lys-L-Gln,Formed peptide (mM),[2],+
L-Trp-L-Gln,Formed peptide (mM),[2],+
L-Ala-L-His-L-Ala,Produced peptide,[1]; oligopeptide production,58.0 mM
same,Produced peptide,[3]; [7],55.9 mM
Gly-Gly-L-Tyr-L-Ala,Produced peptide,[3]; [7],44.2 mM
D-Ala-L-Gln,Formed peptide,[3]; [6],69.3 mM
L-Ala-L-Ala-L-Ala,Produced peptide,[1]; oligopeptide production,41.1 mM
same,Produced peptide,[3]; [7],57.5 mM
D-Ser-L-Ser,Formed peptide,[3]; [6],3.3 mM
D-Met-L-Ser,Formed peptide,[3]; [6],5.1 mM
Gly-Phe-Met,Produced peptide,[3]; [9],13.3 mM
H—N—Me-Ala-H-Gln-OH,Produced peptide,[3]; [10],0.5 mM
L-Ala-L-Ala-L-Ala-L-Ala-L-Ala,Produced peptide,[1]; oligopeptide production,22.8 mM
same,Produced peptide,[3]; [7],34.8 mM
L-Ala-Gly,Produced peptide,[1]; Table 15-1,11.1 mM
γ-L-Glu-L-Gln,Formed peptide (mM),[2],+
L-His-L-Met,Formed peptide,[2],6.5 mM
L-Ala-L-Phe-Gly,Produced peptide,[1]; oligopeptide production,34.0 mM
same,Produced peptide,[3]; [7],43.7 mM
H-Ala-p-F-Phe-OH,Produced peptide,"[3]; carboxy component 50 mM, amine component 50 mM, 0.1 unit enzyme, 25° C., reaction time 3 hr",21.9 mM
H-Ala-Ser(tBu)-OH,Produced peptide,[3]; [11],48.8 mM
L-Ala-L-Ala-L-Ala-L-Ala,Produced peptide,[1]; oligopeptide production,30.1 mM
same,Produced peptide,[3]; [7],44.5 mM
L-Phe-L-Ser,Formed peptide,"[3]; L-amino acid amide hydrochloride 100 mM as carboxy component, L-amino acid 150 mM, pH 9.0, 25° C., 3 hours",0.6 mM
L-Ala-L-Ala-NH2,Produced peptide,[1]; Table 15-4,9.2 mM
same,Formed peptide,[3]; [12],8.3 mM
L-His-L-Gln,Formed peptide (mM),[2],+
L-Ala-L-Ala-L-Gln,Produced peptide,[3]; [7],15.2 mM
Ala-β-Ala,Formed peptide,[3]; [5],7.7 mM
D-Val-D-Ser,Formed peptide,[3]; [6],0.5 mM
"COC(=O)[C@H](C)N.Cl [L-Alanine methyl ester•HCl, L-alanine methyl ester hydrochloride]",L-Ala-L-Gln formed,[2],84.3 mM
L-Met-D-Ser,Formed peptide,[3]; [6],1.9 mM
L-Thr-Gly-Gly,Produced peptide,[1]; oligopeptide production,8.4 mM
same,Produced peptide,[3]; [7],83.0 mM
β-Ala-L-α-Ala,Formed peptide (mM),[3]; [5],tr
Thr-β-Ala,Formed peptide,[3]; [5],3.2 mM
D-Ala-D-Ser,Produced peptide,[1]; Table 15-1,5.5 mM
same,Formed peptide,[3]; [6],0.2 mM
L-Ala-D-Gln,Formed peptide,[3]; [6],0.3 mM
β-L-Asp-L-Gln,Formed peptide (mM),[2],tr
Gly-β-Phe,Formed peptide,[3]; [5],0.4 mM
L-Ala-L-Asp,Produced peptide,[1]; Table 15-1,2.3 mM
D-Ala-D-Gln,Formed peptide (mM),[3]; [6],tr
CCOC(=O)[C@H](C)N.Cl [L-Alanine ethyl ester•HCl],L-Ala-L-Gln formed,[2],91.5 mM
L-Tyr-Gly-Gly-L-Phe-L-Met,Produced peptide,[3]; [9],2.7 mM
H-Aib-H-Gln-OH,Produced peptide,[3]; [10],18.8 mM
Gly-L-CySH,Formed peptide,[2],45.6 mM
H-Ala-t-Leu-OH,Produced peptide,[3]; [10],0.4 mM
D-Met-D-Ser,Formed peptide,[3]; [6],2.7 mM
L-Ala-L-Ala,Produced peptide,[1]; Table 15-1,13.1 mM
same,Produced peptide,[1]; oligopeptide production,25.6 mM
same,Produced peptide,[3]; [7],28.7 mM
L-Val-D-Ser,Formed peptide,[3]; [6],1.4 mM
H-Aib-Phe-OH,Produced peptide,[3]; [10],17.2 mM
D-Val-L-Ser,Formed peptide,[3]; [6],0.6 mM
Gly-β-Ala,Formed peptide,[3]; [5],2.2 mM
C[C@H](N)C(=O)OC(C)(C)C.Cl [L-Alanine-t-butyl ester•HCl],L-Ala-L-Gln formed,[2],7.5 mM
H-Asp(OtBu)-Gln-OH,Produced peptide,[3]; [11],0.9 mM
D-Thr-D-Ser,Formed peptide,[3]; [6],1.1 mM
D-Thr-L-Ser,Formed peptide,[3]; [6],1.0 mM
L-Leu-L-Gln,Formed peptide (mM),[2],+
L-Ala-L-Tyr,Produced peptide,[1]; Table 15-1,11.1 mM
L-Ala-Gly-L-Ala,Produced peptide,[1]; oligopeptide production,35.1 mM
same,Produced peptide,[3]; [7],25.9 mM
Gly-Gly-L-Gln,Produced peptide,[3]; [7],7.2 mM
H-Ala-p-NO2-Phe-OH,Produced peptide,[3]; [8],27.5 mM
CNC(=O)CN [Gly-methylamine],Produced peptide,[1]; Table 15-4,1.0 mM
same,Formed peptide,[3]; [4],1.1 mM
L-Ala-L-Pro,Produced peptide,[1]; Table 15-1,1.5 mM
H-Ala-Lys(Boc)-OH,Produced peptide,[3]; [11],51.0 mM
D-Ala-L-Ser,Produced peptide,[1]; Table 15-1,24.1 mM
same,Formed peptide,[3]; [6],20.3 mM
Ala-β-Phe,Formed peptide,[3]; [5],1.4 mM
L-Asn-L-Gln,Formed peptide (mM),[2],+
L-Trp-L-Met,Formed peptide,[2],4.1 mM
L-Ala-Gly-Gly,Produced peptide,[1]; oligopeptide production,33.7 mM
same,Produced peptide,[3]; [7],41.7 mM
β-Ala-L-Gln,Formed peptide,[3]; [5],0.6 mM
β-Ala-β-Ala,Formed peptide,[3]; [5],0.2 mM
L-Ala-L-Ala-L-Ala-L-Ala-L-Ala-L-Ala,Produced peptide (mM),"[3]; carboxy component 10 mM, amine component 15 mM, pH 9.0, 25° C., 3 hours",1.4* mM
L-Lys-L-Met,Formed peptide,[2],6.8 mM
L-Ala-L-Glu,Produced peptide,[1]; Table 15-1,39.1 mM
L-Ala-L-CySH,Produced peptide (mM),[1]; Table 15-1,+
L-Ala-L-Trp,Produced peptide,[1]; Table 15-1,46.0 mM
α-L-Glu-L-Gln,Formed peptide (mM),[2],+
L-Ala-L-Val,Produced peptide,[1]; Table 15-1,10.9 mM
[dA]-Gly-Phe,Produced peptide (mM),"[3]; oligopeptide production, amount of enzyme 0.1 unit, pH 9.0, 25° C., 3 hours",Tr
L-Thr-D-Ser,Formed peptide,[3]; [6],6.9 mM
L-Ala-L-Asn,Produced peptide,[1]; Table 15-1,52.3 mM
L-Thr-L-Ser,Formed peptide,[2],58.2 mM
L-Ala-L-Thr,Produced peptide,[1]; Table 15-1,47.3 mM
H-Ala-Asp(OtBu)-OH,Produced peptide,[3]; [11],62.6 mM
L-Ala-L-Leu-L-Ala,Produced peptide,[1]; oligopeptide production,40.7 mM
same,Produced peptide,[3]; [7],48.3 mM
L-Ala-L-Ile,Produced peptide,[1]; Table 15-1,24.7 mM
H-Ala-Cl—F-Phe-OH,Produced peptide,[3]; [8],20.8 mM
L-Ser-D-Ser,Formed peptide,[3]; [6],16.2 mM
CNC(=O)C(C)N [L-Ala-methylamine],Produced peptide,[1]; Table 15-4,0.6 mM
same,Formed peptide,[3]; [4],0.3 mM
L-Ala-L-Phe-NH2,Produced peptide,[1]; Table 15-4,27.1 mM
same,Formed peptide,[3]; [12],12.2 mM
L-Ala-L-Phe-L-Ala,Produced peptide,[1]; oligopeptide production,24.8 mM
same,Produced peptide,[3]; [7],49.7 mM
L-Ala-Gly-NH2,Produced peptide,[1]; Table 15-4,15.1 mM
same,Formed peptide,[3]; [12],7.4 mM
β-Ala-L-Ser,Formed peptide,[3]; [5],3.2 mM
